This is an account of results in PubChem BioAssay AID651807 (Broad Institute, 2012).

Where “and” joins values, the source holds several entries; their conditions need not be identical. Equal entries are not always repeated. Inconclusive results are not listed. Calls of active or inactive are those of the source.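 Rule for the calls: active = fitted curve rises past 40% activation at or below the top valid concentration, in every replicate test; inconclusive = replicate tests give mixed outcomes; inactive = all replicate tests inactive, or signal moves in the opposite direction.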

Test system in the first assay: not listed separately
The experiment in a line: activators of Nrf2/ARE beta-lactamase reporter, dose response, Keap1-Nrf2 interaction inhibitor project, cell-based, ARE-bla HepG2, dry powder, set 4 (AID 651807). The following applies: ARE-bla HepG2, beta-lactamase FRET ratio 460/530; at 16 µM (top of the series).
For the compound `O=C1c2ccccc2C(=O)N1CC1c2ccccc2CCN1C(=O)Cc1ccccc1` (stereo not drawn), the activation was 14.7% (inactive).

Staying with this assay, now noted: ARE-bla HepG2, beta-lactamase FRET ratio 460/530; at 68 µM (top of the series).
On to `O=C(Cc1ccccc1)NC[C@@H]1c2ccccc2CCN1C(=O)[C@@H]1CCCC[C@@H]1C(=O)O`, for which the activation is 6.95% (inactive).

On to `O=C(O)[C@H]1CCCC[C@H]1C(=O)NC(CN1C(=O)c2ccccc2C1=O)c1ccccc1` (stereo partly drawn), for which the activation was 25.2% (inactive).

On to `O=C(O)[C@H]1CCCC[C@H]1C(=O)N1CCc2ccccc2C1CCN1C(=O)c2ccccc2C1=O` (stereo partly drawn), for which the activation is 17.3% (inactive).

Consider `Cc1ccc(S(=O)(=O)NC(=O)[C@@H]2c3ccccc3CCN2C(=O)[C@@H]2CCCC[C@@H]2C(=O)O)cc1`, for which the activation was 13.2% (inactive) and 28.7% (inactive).

As for `O=C(O)[C@H]1CCCC[C@H]1C(=O)N1CCc2ccccc2[C@H]1CNc1nc(Cl)nc2ccccc12`, the activation was -4.32% (inactive).

`O=C(NC[C@@H]1c2ccccc2CCN1C(=O)[C@@H]1CCCC[C@@H]1C(=O)O)c1ccccc1CO`: the activation was 11% (inactive).

On to `COC(=O)CNc1nc(NS(=O)(=O)c2c(C)cc(C)cc2C)c2ccccc2n1`, for which the activation is -4.15% (inactive).

With `Cc1ccc(S(=O)(=O)NC[C@@H]2c3ccccc3CCN2C(=O)[C@@H]2CCCC[C@@H]2C(=O)O)c(C)c1`, the activation was 29.9% (inactive).

For `O=C1c2ccccc2C(=O)N1C[C@H]1NCCc2ccccc21`, the activation was 43.8% (inactive).

Regarding `O=C(O)c1ccccc1C(=O)NC[C@@H]1c2ccccc2CCN1C(=O)[C@@H]1CCCC[C@@H]1C(=O)O`, the activation is 23.5% (inactive).

Regarding `O=C(O)C1CCCCC1C(=O)N1CCc2ccccc2[C@H]1C(=O)NCCc1ccccc1` (stereo partly drawn), the activation is 2.65% (inactive).

For `O=C(NC[C@@H]1c2ccccc2CCN1C(=O)[C@@H]1CCCC[C@@H]1C(=O)O)c1ccccc1`, the activation was 6.57% (inactive).

With `O=C(O)C1CCCCC1C(=O)Nc1ccccc1CN1C(=O)c2ccccc2C1=O` (stereo not drawn), the activation was 6.93% (inactive).

For `Cc1cc(C)c(S(=O)(=O)Nc2nc(N(C)C)nc3ccccc23)c(C)c1`, the activation is -5.99% (inactive).

Turning to `O=C(O)C1CCCCC1C(=O)N1CCCCC1CN1C(=O)c2ccccc2C1=O` (stereo not drawn), the activation was 16.6% (inactive).

Turning to `O=C(NC[C@@H]1c2ccccc2CCN1C(=O)[C@@H]1CCCC[C@@H]1C(=O)O)c1ccc(CN2CCOCC2)cc1`, the activation is 13.2% (inactive).

Turning to `O=C(O)C1CCCCC1C(=O)N1CCc2ccccc2C1CN1C(=O)c2ccccc2S1(=O)=O` (stereo not drawn), the activation is 35% (inactive).

On to `O=C(O)CC(=O)N1CCc2ccccc2C1CN1C(=O)c2ccccc2C1=O` (stereo not drawn), for which the activation was 31.6% (inactive).

Turning to `COc1ccccc1CCNC(=O)[C@@H]1c2ccccc2CCN1C(=O)C1CCCCC1C(=O)O` (stereo partly drawn), the activation is -0.279% (inactive).

Take `O=C(O)C1CCCCC1C(=O)NCC1c2ccccc2CCN1C(=O)Cc1ccccc1` (stereo not drawn): the activation was 20.2% (inactive).

For the compound `COC(=O)[C@@H]1CCCC[C@@H]1C(=O)N1CCc2ccccc2[C@H]1CN1C(=O)c2ccccc2C1=O`, the activation was 25.5% (inactive).

On to `O=C(NC[C@@H]1c2ccccc2CCN1C(=O)[C@@H]1CCCC[C@@H]1C(=O)O)OCC1c2ccccc2-c2ccccc21`, for which the activation was -31.2% (inactive).

Take `O=C1c2ccccc2C(=O)N1CC1=NCCc2ccccc21`: the activation was 9.14% (inactive).

Take `O=C(O)[C@@H]1CCCN1C(=O)N1CCc2ccccc2[C@H]1CN1C(=O)c2ccccc2C1=O`: the activation was 27% (inactive).

In the case of `Cc1cc(C)c(S(=O)(=O)Nc2nc(NCCO)nc3ccccc23)c(C)c1`, the activation was -10.1% (inactive).

In another assay the test system is ARE-bla HepG2, beta-lactamase FRET ratio 460/530. The assay is described as above.
Details: not given
`Cc1cc(C)c(S(=O)(=O)Nc2cc(C(C(=O)OC(C)C)C(=O)C(F)(F)F)c(O)c3ccccc23)c(C)c1` (stereo not drawn): the AC40 is 4.2 µM.

As for `Cc1ccc(S(=O)(=O)NNc2nc(C(C(=O)OC(C)C)C(=O)C(F)(F)F)nc3ccccc23)cc1` (stereo not drawn), the AC40 is 33 µM.

For the compound `NC(=O)c1ccccc1C(=O)NC[C@@H]1c2ccccc2CCN1C(=O)[C@@H]1CCCC[C@@H]1C(=O)O`, the AC40 is 48.7 µM.

Regarding `Cc1ccccc1S(=O)(=O)Nc1cc(C(C(=O)OC(C)C)C(=O)C(F)(F)F)c(O)c2ccccc12` (stereo not drawn), the AC40 was 8.84 µM.

Turning to `O=C(NCCc1ccccc1)c1ccccc1C(=O)NC[C@@H]1c2ccccc2CCN1C(=O)C1CCCCC1C(=O)O` (stereo partly drawn), the AC40 is 17 µM.

Take `CC(C)OC(=O)C(C(=O)C(F)(F)F)c1cc(NS(=O)(=O)c2ccccc2)c2ccccc2c1O` (stereo not drawn): the AC40 was 27.2 µM.

As to `Cc1cc(C)c(S(=O)(=O)Nc2nc(C(C(=O)OC(C)C)C(=O)C(F)(F)F)nc3ccccc23)c(C)c1` (stereo not drawn), the AC40 is 27.3 µM.

In the case of `O=S(=O)(Nc1nc(NCC2CCCCC2)nc2ccccc12)c1ccccc1`, the AC40 was 32.2 µM.

For `O=C(O)c1ccccc1C(=O)N1CCc2ccccc2C1CN1C(=O)c2ccccc2C1=O` (stereo not drawn), the AC40 is 41.3 µM.

For the compound `O=C1c2ccccc2C(=O)N1C[C@@H]1c2ccccc2CCN1C(=O)OCc1ccccc1`, the AC40 was 38.2 µM.

In the case of `Cc1ccc(S(=O)(=O)Nc2cc(C(C(=O)OC(C)C)C(=O)C(F)(F)F)c(O)c3ccccc23)cc1` (stereo not drawn), the AC40 is 9.52 µM.

For the compound `O=C(O)C1CCCCC1C(=O)N1CCc2ccccc2C1CN1C(=O)[C@H]2CCCC[C@H]2C1=O` (stereo partly drawn), the AC40 is 29.1 µM.

Turning to `Cc1ccc(S(=O)(=O)Nc2cc(C(C(=O)OC(C)C)C(=O)C(F)(F)F)c(O)c3ccccc23)c(C)c1` (stereo not drawn), the AC40 was 10.5 µM.

Turning to `COc1ccc(CCN=C2C=C(NS(=O)(=O)c3c(C)cc(C)cc3C)c3ccccc3C2=O)cc1`, the AC40 was 10.6 µM.

Take `Cc1cc(C)c(S(=O)(=O)Nc2cc(C(C(=O)OCc3ccccc3)C(=O)OCc3ccccc3)c(O)c3ccccc23)c(C)c1`: the AC40 is 32.7 µM.

Take `O=C(O)C1CCCCC1C(=O)N1CCc2ccccc2[C@H]1C(=O)NC12CC3CC(CC(C3)C1)C2` (stereo partly drawn): the AC40 was 45.6 µM.

In the case of `Cc1ccc(S(=O)(=O)NNc2nc(N3CC(O)CC3C(=O)O)nc3ccccc23)cc1` (stereo not drawn), the AC40 was 13.5 µM.
